Paper PMC3971408, “Inhibition of triosephosphate isomerase by phosphoenolpyruvate in the feedback-regulation of glycolysis” (Open Biology, 2014)

Experiments:
human TPIIle170Thr = biological target: T1, human TPIIle170Thr (Homo sapiens, UniProt P60174, I171T); test: enzyme-coupled activity assay with PEP titration; thermal shift ΔTm […]°C; format: biochemical
T1 construct: gene TPI1; 6x-histidine tagged human TPI

human TPIIle170Val = biological target: T2, human TPIIle170Val (Homo sapiens, UniProt P60174, I171V); test: as above; format: biochemical
T2 construct: gene TPI1; 6x-histidine tagged human TPI
T2 sequence (P60174 2-249 I171V): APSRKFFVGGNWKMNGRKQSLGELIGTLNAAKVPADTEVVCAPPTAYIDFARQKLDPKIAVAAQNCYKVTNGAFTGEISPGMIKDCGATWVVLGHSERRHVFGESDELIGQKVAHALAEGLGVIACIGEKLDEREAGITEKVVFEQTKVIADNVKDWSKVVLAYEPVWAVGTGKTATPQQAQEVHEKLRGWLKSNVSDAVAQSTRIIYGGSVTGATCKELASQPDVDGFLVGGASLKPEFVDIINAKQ

[1] = biological target: T3, triosephosphate isomerase (TPI) (Oryctolagus cuniculus, UniProt P00939); test: co-crystal structure at […] Å; format: binding
T3 construct: gene TPI1; Native rabbit muscle TPI (Sigma); homodimer, 246 of 250 amino acids modelled
T3 sequence (P00939 2-249): as the sequence (P60174 2-249 I171V) above, with Q19K, S20N, G26T, A118S, V170I counted along it

[2] = biological target: T4, human triosephosphate isomerase (TPI) (Homo sapiens, UniProt P60174); test: enzyme-coupled activity assay with PEP titration (IC50 […]); thermal shift ΔTm […]°C; format: biochemical
T4 construct: gene TPI1; 6x-histidine tagged wild-type human TPI
T4 sequence (P60174 2-249): as the sequence (P60174 2-249 I171V) above, with V170I counted along it

T1 sequence (P60174 2-249 I171T): as the sequence (P60174 2-249 I171V) above, with V170T counted along it

`C=C(OP(=O)(O)O)C(=O)O` [PEP, phosphoenolpyruvate] was tested, and the IC50 (human TPIIle170Thr) was 1540 µM, the IC50 (human TPIIle170Val) was 1930 µM and the “co-crystal structure at 1.55 Å” value [1] was “The electron density map gave a clearly defined and unambiguous shape for PEP bound to the active sites”. It also gave a Ki [2] of 230 µM.
